These results are taken from US20130316394A1, “VIABILITY STAINING METHOD” (priority 2012, published 2013).

SMILES strings stand for the structures.

For assay [1], the system named is E. coli. Nature of the assay: Discrimination of viable and non-viable E. coli in solution with fluorescent probe and two PET quenchers. Type of assay: cell-based. The following applies: mixed viable/heat killed E. coli, 0.005 mM Oxazine 170 perchlorate, 0.4 mM p-Sulfonic calix[6]arene, 100 mM Sodium ascorbate in PBS, about 5 min. The method, then:
The viable and heat killed E. coli were preparations were prepared as described in Example 1. The heat killed E. coli suspension was then combined with the viable cell suspension and mixed by vortexing. The resulting cell suspension served as the viable and non-viable E. coli solution.
A fluorescent probe-quencher stain was prepared as a solution consisting of 0.005 mM Oxazine 170 perchlorate (Sigma-Aldrich, St. Louis, Mo.), 0.4 mM p-Sulfonic calix[6]arene (TCI America, Portland, Oreg.), 100 mM Sodium ascorbate (Sigma-Aldrich, St. Louis, Mo.) in PBS.
The viable and non-viable E. coli suspension was then diluted 1:1000 into the fluorescent probe-quencher solution to stain the cells. After incubation for approximately 5 minutes, a droplet of the stained cell solution was placed onto a microscope slide and imaged on a fluorescent microscope (Carl Zeiss, LLC, Thornwood, N.Y.).
FIGS. 20A and 20B show a combined image of the viable and non-viable stained E. coli captured under phase contrast (FIG. 20A) as well as fluorescent conditions (excitation 575-625 nm, emission 660-710 nm) (FIG. 20B). The viable and non-viable cells were indistinguishable in phase contrast but under fluorescent conditions the viable cells were brightly fluorescent whereas the non viable cells were not.

Assay [2] has as its system E. coli. Nature of the assay: Imaging of viable and heat killed E. coli on a membrane with fluorescent probe and quencher wash. In kind it is cell-based. The following applies: 0.005 mM Oxazine 170 perchlorate stain, 10 mM quencher wash in PBS. The method, then:
Viable and non-viable E. coli cell fractions were prepared by picking a colony cultured on a conventional media plate and then transferring the cells into Phosphate Buffered Saline (PBS). The cells then were suspended by vortexing and then were further diluted in PBS to give a turbidity equivalent to a 1.0 McFarland standard. This stock solution served as the live cell fraction. An aliquot of the live cell fraction was transferred to a glass tube that was placed into a boiling water bath for about 15 minutes to heat kill the E. coli. The tube was removed from the bath and allowed to cool to room temperature. This heat killed suspension served as the dead cell fraction.
A fluorescent stain solution was prepared as a 0.005 mM solution of Oxazine 170 perchlorate (Sigma-Aldrich, St. Louis, Mo.) in PBS containing a 1:100,000 dilution of 10% w/v 0.8 μm Sky Blue latex fluorescent particles (Spherotech, Lake Forest, Ill.). A separate quencher wash solution was prepared as a 10 mM Sodium ascorbate (Sigma-Aldrich, St. Louis, Mo.) solution in PBS. […]
The cells then were imaged using a fluorescent microscope (Carl Zeiss, LLC—Thornwood, N.Y.) with an excitation of 575 nm-625 nm and measured emission of 660 nm-710 nm. […]

With `O=S(=O)(O)c1cc2c(O)c(c1)Cc1cc(S(=O)(=O)O)cc(c1O)Cc1cc(S(=O)(=O)O)cc(c1O)Cc1cc(S(=O)(=O)O)cc(c1O)Cc1cc(S(=O)(=O)O)cc(c1O)Cc1cc(S(=O)(=O)O)cc(c1O)C2` [p-Sulfonic calix[6]arene, 4- Sulfocalix [6]arene], the “permeation of non-viable cell membranes and quenching of fluorescence” value in assay [1] is “effective quenching of fluorescence”.

Turning to `O=C1O[C@H]([C@@H](O)CO)C([O-])=C1O.[Na+]` [sodium ascorbate, Sodium Ascorbate], the “permeation of the quencher into heat killed cells and effect on fluorescence” value in assay [2] (heat killed E. coli on 0.2 μm membrane) was “quenching of the fluorescent signal and a loss of fluorescence”. For the same compound, the “permeation of the quencher into viable cells” value in assay [2] (live E. coli on 0.2 μm membrane) is given as “excluded from the viable cells”. Further, the “permeation of non-viable cell membranes and quenching of fluorescence” value in assay [1] was “effective quenching of fluorescence”.
